The record followed here is ChEMBL document CHEMBL3714725, “Diaminopyrimidines as P2X3 and P2X2/3 modulators” (2010).

Structures are written as SMILES. The source made the active and inactive calls. How the calls were made is not given here.

The first data set deals with Rattus norvegicus. The experiment in a line: Cmax in Crl:WI(GLx/BRL/Han)IGS BR(Hanover-Wistar) rat assessed as (5-(5-Iodo-2-isopropyl-4-methoxy-phenoxy)-pyrimidine-2,4-diamine) level at 0.127 mmol, po after 0.5 to 24 hrs by HPLC method. Particulars: in vivo. It counts as ADME, organism-based. The arrangement: dose 0.127 mmol, route oral.
In general, Cmax refers to the maximum level reached in the sampled fluid or tissue. On to `COc1cc(C(C)C)c(Oc2cnc(NC(=O)C(C)C)nc2N)cc1I`, for which the Cmax is 61.9 ng/mL.

Another data set has as its target T1, P2X purinoceptor 3 (Rattus norvegicus) (UniProt P49654).
T1 sequence (whole entry): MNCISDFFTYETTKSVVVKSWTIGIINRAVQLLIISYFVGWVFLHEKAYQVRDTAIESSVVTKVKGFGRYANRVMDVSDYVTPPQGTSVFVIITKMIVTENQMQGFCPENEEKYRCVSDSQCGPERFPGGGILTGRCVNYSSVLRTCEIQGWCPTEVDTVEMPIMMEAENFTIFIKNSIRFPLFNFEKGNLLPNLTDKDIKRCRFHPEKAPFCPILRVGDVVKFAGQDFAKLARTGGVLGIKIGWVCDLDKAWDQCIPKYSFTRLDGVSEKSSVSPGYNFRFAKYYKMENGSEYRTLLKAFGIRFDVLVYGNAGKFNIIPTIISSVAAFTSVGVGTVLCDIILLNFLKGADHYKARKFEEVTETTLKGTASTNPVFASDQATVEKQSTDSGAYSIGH
The experiment in a line: Antagonist activity against rat P2X3 receptor expressed in CHOK1 cells assessed as inhibition of alpha,beta-meATP-induced calcium response incubated for 20 mins by Fluo-3AM dye based FLIPR assay. It counts as functional, cell-based. Particulars: CHO-K1.
With `COc1cc(C(C)C)c(Oc2cnc(NC(=O)c3cnc(C)cn3)nc2N)cc1I`, the inhibition result was “Active”.

For `COc1cc(C(C)C)c(Oc2cnc(N)nc2NC(=O)c2cnc(C)cn2)cc1I`, the inhibition entry is “Active”.

On to `COCCOCC(=O)Nc1ncc(Oc2cc(I)c(OC)cc2C(C)C)c(N)n1`, for which the inhibition result is “Active”.

Turning to `C#Cc1cc(Oc2cnc(NC(=O)C(C)(C)C)nc2NC(=O)C(C)(C)C)c(C(C)C)cc1OC`, the inhibition result was “Active”. Take `COc1cc(C(C)C)c(Oc2cnc(NC(=O)N3CCCCC3)nc2N)cc1I`: the inhibition result is “Active”. Take `C#Cc1cc(Oc2cnc(N)nc2NC(=O)CCC)c(C(C)C)cc1OC`: the inhibition entry was “Active”. As for `COc1cc(C(C)C)c(Oc2cnc(NC(C)=O)nc2NC(C)=O)cc1I`, the inhibition entry is “Active”. Turning to `C#Cc1cc(Oc2cnc(NC(C)=O)nc2N)c(C(C)C)cc1OC`, the inhibition result is “Active”. Turning to `COc1cc(C(C)C)c(Oc2cnc(NC(=O)Cc3cccnc3)nc2N)cc1I`, the inhibition result was “Active”.

For `COc1cc(C(C)C)c(Oc2cnc(NC(=O)OCC(C)C)nc2N)cc1I`, the inhibition entry is “Active”. For the compound `COc1cc(C(C)C)c(Oc2cnc(N)nc2NC(=O)c2cccn2C)cc1I`, the inhibition entry is “Active”.

As for `CCOC(=O)Nc1ncc(Oc2cc(I)c(OC)cc2C(C)C)c(N)n1`, the inhibition entry is “Active”. On the same count and under the same terms, the same measure for `C#Cc1cc(Oc2cnc(NC(=O)CC(C)(C)C)nc2N)c(C(C)C)cc1OC`: “Active”. Consider `COc1cc(C(C)C)c(Oc2cnc(N)nc2NC(=O)C2CCN(C(C)=O)CC2)cc1I`, for which the inhibition entry was “Active”. Consider `COc1cc(C(C)C)c(Oc2cnc(N)nc2NC(=O)C(C)(C)C)cc1I`, for which the inhibition entry was “Active”. Regarding `COc1cc(C(C)C)c(Oc2cnc(NC(=O)c3cccnc3)nc2N)cc1I`, the inhibition result is “Active”. On to `COc1cc(C(C)C)c(Oc2cnc(NC(=O)c3cnccn3)nc2N)cc1I`, for which the inhibition result is “Active”. Regarding `COc1cc(C(C)C)c(Oc2cnc(NC(=O)C(N)C(C)C)nc2N)cc1I` (centres undefined), the inhibition entry was “Active”.

On to `COc1cc(C(C)C)c(Oc2cnc(NC(=O)C(C)C)nc2NC(=O)C(C)C)cc1I`, for which the inhibition entry was “Active”. As to `COCCOCC(=O)Nc1nc(N)ncc1Oc1cc(I)c(OC)cc1C(C)C`, the inhibition entry is “Active”. Turning to `CCC(C)(C)C(=O)Nc1ncc(Oc2cc(I)c(OC)cc2C(C)C)c(N)n1`, the inhibition entry is “Active”. The same measure, in the same setting: the same measure for `CCCC(=O)Nc1ncc(Oc2cc(I)c(OC)cc2C(C)C)c(N)n1`: “Active”; for `COc1cc(C(C)C)c(Oc2cnc(NC(=O)c3cnc[nH]3)nc2N)cc1I`: “Active”; for `CCC(C)C(=O)Nc1ncc(Oc2cc(I)c(OC)cc2C(C)C)c(N)n1` (centres undefined): “Active”. Consider `COc1cc(C(C)C)c(Oc2cnc(NC(=O)N3CCC(C)CC3)nc2N)cc1I`, for which the inhibition entry is “Active”.

In the case of `COc1cc(C(C)C)c(Oc2cnc(N)nc2NC(=O)c2ccccc2)cc1I`, the inhibition result is “Active”. Turning to `COc1cc(C(C)C)c(Oc2cnc(NC(=O)c3ccnnc3)nc2N)cc1I`, the inhibition entry is “Active”. `COc1cc(C(C)C)c(Oc2cnc(NC(=O)C(C)(C)O)nc2N)cc1I`: the inhibition entry is “Active”. Take `C#Cc1cc(Oc2cnc(NC(=O)c3ccccc3)nc2N)c(C(C)C)cc1OC`: the inhibition result is “Active”. On to `CCC(C)(C)C(=O)Nc1nc(N)ncc1Oc1cc(I)c(OC)cc1C(C)C`, for which the inhibition entry is “Active”. As for `CC[C@@H](C)[C@@H](N)C(=O)Nc1nc(N)ncc1Oc1cc(I)c(OC)cc1C(C)C`, the inhibition result is “Active”. For `COc1cc(C(C)C)c(Oc2cnc(NC(=O)C(C)(C)OC(C)=O)nc2N)cc1I`, the inhibition result was “Active”. Take `C#Cc1cc(Oc2cnc(N)nc2NC(=O)c2cccn2C)c(C(C)C)cc1OC`: the inhibition entry is “Active”. Take `COc1cc(C(C)C)c(Oc2cnc(NC(=O)N3CCC(N(C)C)CC3)nc2N)cc1I`: the inhibition entry is “Active”. Take `COc1cc(C(C)C)c(Oc2cnc(N)nc2NC(=O)c2cnc[nH]2)cc1I`: the inhibition result is “Active”. As for `C#Cc1cc(Oc2cnc(N)nc2NC(=O)c2ccccc2)c(C(C)C)cc1OC`, the inhibition result is “Active”.

On to `COc1cc(C(C)C)c(Oc2cnc(N)nc2NC(=O)c2ccco2)cc1I`, for which the inhibition entry was “Active”. On to `COc1cc(C(C)C)c(Oc2cnc(NC(=O)COC(C)=O)nc2NC(=O)COC(C)=O)cc1I`, for which the inhibition result is “Active”.

Take `C#Cc1cc(Oc2cnc(N)nc2NC(=O)CC(C)(C)C)c(C(C)C)cc1OC`: the inhibition entry was “Active”.

In the case of `CCOC(=O)Nc1ncc(Oc2cc(I)c(OC)cc2C(C)C)c(NC(=O)OCC)n1`, the inhibition entry is “Active”. In the case of `COc1cc(C(C)C)c(Oc2cnc(NC(=O)[C@H](N)[C@H](C)C(C)C)nc2N)cc1I`, the inhibition result is “Active”.

For `COc1cc(C(C)C)c(Oc2cnc(NC(=O)CO)nc2N)cc1I`, the inhibition entry is “Active”. Take `COc1cc(C(C)C)c(Oc2cnc(N)nc2NC(=O)c2cnccn2)cc1I`: the inhibition entry is “Active”.

For `COc1cc(C(C)C)c(Oc2cnc(NC(=O)N3CCN(C)CC3)nc2N)cc1I`, the inhibition entry was “Active”.

Turning to `CCCCC(=O)Nc1ncc(Oc2cc(I)c(OC)cc2C(C)C)c(N)n1`, the inhibition result is “Active”. Still for that read-out and setting: the result for `CCCCC(=O)Nc1ncc(Oc2cc(I)c(OC)cc2C(C)C)c(NC(=O)CCCC)n1` reads “Active”; that for `COc1cc(C(C)C)c(Oc2cnc(NC(C)=O)nc2N)cc1I`, “Active”. For `COc1cc(C(C)C)c(Oc2cnc(NC(=O)N3CCOCC3)nc2NC(=O)N2CCOCC2)cc1I`, the inhibition entry is “Active”. Regarding `COc1cc(C(C)C)c(Oc2cnc(NC(=O)CC(C)C)nc2N)cc1I`, the inhibition entry is “Active”.

Regarding `COc1cc(C(C)C)c(Oc2cnc(N)nc2NC(=O)c2ccccn2)cc1I`, the inhibition entry was “Active”. Regarding `COc1cc(C(C)C)c(Oc2cnc(NC(=O)C3CCN(C)CC3)nc2N)cc1I`, the inhibition result is “Active”.

For `COc1cc(C(C)C)c(Oc2cnc(N)nc2NC(=O)C2CCN(C)CC2)cc1I`, the inhibition result was “Active”. On to `COc1cc(C(C)C)c(Oc2cnc(NC(=O)CC(C)C)nc2NC(=O)CC(C)C)cc1I`, for which the inhibition entry is “Active”. Regarding `COc1cc(C(C)C)c(Oc2cnc(NC(=O)N3CCC(O)CC3)nc2N)cc1I`, the inhibition result was “Active”. In the case of `COc1cc(C(C)C)c(Oc2cnc(NC(=O)C3CCN(C(C)=O)CC3)nc2NC(=O)C2CCN(C(C)=O)CC2)cc1I`, the inhibition entry was “Active”. Consider `COc1cc(C(C)C)c(Oc2cnc(NC(=O)C(C)(C)C)nc2N)cc1I`, for which the inhibition entry is “Active”. `CC[C@@H](C)[C@@H](N)C(=O)Nc1ncc(Oc2cc(I)c(OC)cc2C(C)C)c(N)n1`: the inhibition entry is “Active”. Turning to `COc1cc(C(C)C)c(Oc2cnc(NC(=O)c3ccccc3)nc2N)cc1I`, the inhibition result was “Active”.

Regarding `COc1cc(C(C)C)c(Oc2cnc(N)nc2NC(=O)[C@@H]2CCCO2)cc1I`, the inhibition entry is “Active”. Turning to `COc1cc(C(C)C)c(Oc2cnc(NC(=O)c3ccncc3)nc2N)cc1I`, the inhibition entry is “Active”. For the compound `COc1cc(C(C)C)c(Oc2cnc(NC(=O)[C@@H]3CCCO3)nc2N)cc1I`, the inhibition entry was “Active”.

`COc1cc(C(C)C)c(Oc2cnc(NC(=O)COC(C)=O)nc2N)cc1I`: the inhibition result was “Active”.

For the compound `COc1cc(C(C)C)c(Oc2cnc(NC(=O)c3ccco3)nc2N)cc1I`, the inhibition result was “Active”. With `COCC(=O)Nc1ncc(Oc2cc(I)c(OC)cc2C(C)C)c(N)n1`, the inhibition result is “Active”. For `COc1cc(C(C)C)c(Oc2cnc(NC(=O)C3CCCN3C(C)=O)nc2N)cc1I` (centres undefined), the inhibition entry was “Active”. For the compound `C#Cc1cc(Oc2cnc(NC(=O)CCC)nc2N)c(C(C)C)cc1OC`, the inhibition result was “Active”. Consider `COc1cc(C(C)C)c(Oc2cnc(NC(=O)[C@@H]3CCCN3)nc2N)cc1I`, for which the inhibition entry is “Active”. Regarding `COc1cc(C(C)C)c(Oc2cnc(NC(=O)N3CCOCC3)nc2N)cc1I`, the inhibition entry is “Active”. Turning to `CCCC(=O)Nc1ncc(Oc2cc(I)c(OC)cc2C(C)C)c(NC(=O)CCC)n1`, the inhibition result is “Active”. Regarding `COc1cc(C(C)C)c(Oc2cnc(NC(=O)CCC(=O)O)nc2N)cc1I`, the inhibition result was “Active”. Still for that read-out and setting: the same measure for `COc1cc(C(C)C)c(Oc2cnc(NC(=O)c3ccccn3)nc2N)cc1I`: “Active”; for `COc1cc(C(C)C)c(Oc2cnc(N)nc2NC(=O)C2CCOCC2)cc1I`: “Active”.

Another data set relates to Rattus norvegicus. Description: AUC in Crl:WI(GLx/BRL/Han)IGS BR(Hanover-Wistar) rat assessed as (5-(5-Iodo-2-isopropyl-4-methoxy-phenoxy)-pyrimidine-2,4-diamine) level at 0.127 mmol, po after 0.5 to 24 hrs by HPLC method. It is filed as ADME, organism-based. More on the design: time upper 24 hr, time lower 0.5 hr, dose 0.127 mmol, route oral. Particulars: in vivo.
By AUC is commonly meant the area under the concentration-time curve, a measure of exposure. As for `COc1cc(C(C)C)c(Oc2cnc(NC(=O)C(C)C)nc2N)cc1I`, the AUC was found to be 200 ng·h/mL.
